{
  "source": "patent US11555029B2",
  "about": "“PD-1/PD-L1 inhibitors” (Gilead Sciences, Inc., priority 2018, dated 2023)",
  "key": {"[1]": {"system": "HBV-specific CD8+ T cells from CHB patient PBMCs", "assay": "HBV-specific CD8+ T cell expansion and recall response assay in CHB patient PBMCs (IFN-γ, granzyme B by flow cytometry)", "assay_type": "cell-based, human", "description": "(§1) Assays PBMC Isolation from Whole Blood PBMCs were isolated from whole blood using a standard Ficoll® Paque gradient. Briefly, 25-30 mL of blood was gently overlaid on top of 15 mL Ficoll® Paque Plus solution (GE Healthcare, Chicago, Ill.) in a 50 mL Falcon tube, and centrifuged in an Allegra X-14R (Beckman Coulter, Indianapolis, Ind.) at 520 g for 20 minutes at 25° C. […] Next, the cells were centrifuged at 520 g for 5 minutes and red blood cells (RBC) lysed for 5 minutes at room temperature using RBC Lysis Buffer (eBioscience, San Diego, Calif.). […] PBMCs were either subsequently used for the T cell expansion assay, or were cryopreserved with 10% DMSO in PBS before further use. CD8^+ and CD4^+ T Cell 7-Day Expansion and Recall Response Assay\n(§2) PBMCs were seeded at 2-4×10^5 cells/well in 96-well round bottom plates (Corning, N.Y.). […] PBMCs were incubated for 7 days at 37° C. with 5% CO2 in a humidified incubator. […] To inhibit protein transport, 1 μg/mL brefeldin. A solution (Sigma) was added to each well. After overnight incubation, cells were processed for immunostaining and flow cytometry as described herein.\n(§3) Washed cells were resuspended in Live/Dead Aquamine Stain (Invitrogen) per manufacturer's instructions to determine the viability of the cells by flow cytometry. Live/Dead Aqua stained PBMCs were washed twice with FACS staining buffer (1% FBS in PBS), and then incubated with 50 μL of Fc blocking reagent (BD Biosciences, Franklin Lakes, N.J.) for 10 minutes at room temperature. A mixture of antibodies (50 μL/well) described in Table 6 were added to the blocking solution for surface staining, and PBMCs were incubated with the antibodies for 40 minutes at 4° C. […] Cells were washed twice with the permeabilization reagent included in the FoxP3 staining kit and incubated with antibodies for intracellular staining of IFN-γ and GrB (Table 6) at 1.0 μg/mL. After 1 hour incubation at 4° C., PBMCs were centrifuged and washed twice before being resuspended in FACS buffer. Stained PBMCs were analyzed by flow cytometry using a BD LSRFortessa X-20 Cell Analyzer (Becton Dickinson). BD Comp Beads (BD Biosciences) were used as compensation controls. CD8^+ and CD4^+ T cells were identified by gating on the live Aquamine^−CD3^+CD8^+ and Aquamine^−CD3^+CD4^+ PBMC population respectively.\n(§4) Flow cytometry data was analyzed using FlowJo Flow Cytometry Analysis Software v10 (TreeStar, Ashland, Oreg.). Data was exported and statistical analysis was performed using GraphPad Prism v6 (GraphPad Software, La Jolla, Calif.). Statistical significance relative to the DMSO control was calculated by two-tailed, paired t-test."}, "[2]": {"system": "HBV-specific CD4+ T cells from CHB patient PBMCs", "assay": "HBV-specific CD4+ T cell expansion and recall response assay in CHB patient PBMCs (IFN-γ, granzyme B by flow cytometry)", "assay_type": "cell-based, human", "description": "as §1, §2, §3, §4"}, "[3]": {"details": "650 nM compound 139 or 10 μg/mL durvalumab, PBMCs from 9 of the 14 CHB donors (FIG. 1B)"}},
  "note": "“And” between values parts separate entries of the source, which are not always exact repeats. Equal entries are not always repeated.",
  "data": [
    {"smiles": "COc1nc(-c2cccc(-c3cccc(-c4cnc(CNC[C@@H]5CCC(=O)N5)c(OC)n4)c3Cl)c2Cl)cnc1CNC[C@@H]1CCC(=O)N1", "note": "[compound 139]", "values": [
      {"measurement": "increase of granzyme B (GrB)+ CD8+ T cells", "setting": "[1]; 650 nM compound 139, HBV core peptide-stimulated PBMCs from 14 CHB donors, vs DMSO", "value": 1.2, "unit": "fold"},
      {"measurement": "increase of GrB+CD8+ T cells, comparison with durvalumab", "setting": "[1]; [3]", "value": 1.2, "unit": "fold"},
      {"measurement": "increase of IFN-γ+CD8+ T cells, comparison with durvalumab", "setting": "[1]; [3]", "value": 2.5, "unit": "fold"},
      {"measurement": "IFN-γ and Granzyme B Production in chronic hepatitis B (CHB) CD8+ T Cells", "setting": "[1]; FIG. 1A and FIG. 1B", "value": "enhances"},
      {"measurement": "% IFN-γ+ (IFN-γ+ CD8+ T cells)", "setting": "[1]; individual CHB donor, HBV core peptide-stimulated PBMCs, compound 139 650 nM", "value": "0.94% and 0.41% and 0.61% and 0.90% and 0.30%"},
      {"measurement": "increase of granzyme B (GrB)+ CD4+ T cells", "setting": "[2]; 650 nM compound 139, HBV core peptide-stimulated PBMCs from CHB donors, vs DMSO", "value": 1.8, "unit": "fold"},
      {"measurement": "frequency of CD4+ IFN-γ+ T cells", "setting": "[2]; 650 nM compound 139 or 10 μg/mL durvalumab treated PBMCs", "value": 2.5, "unit": "%"},
      {"measurement": "frequency of GrB+CD4+ T cells", "setting": "[2]; 650 nM compound 139 or 10 μg/mL durvalumab, DMSO 3.5%", "value": 4.7, "unit": "%"},
      {"measurement": "IFN-γ and Granzyme B Production in chronic hepatitis B (CHB) CD4+ T Cells", "setting": "[2]; FIG. 2A and FIG. 2B", "value": "enhances"}
    ]}
  ]
}
